In US20260297131A1, “COMPOSITIONS AND METHODS FOR PEPTIDE-BASED MODULATORS OF HUMAN PAPILLOMAVIRUS ONCOPROTEIN E6” (priority 2023, published 2026):
Square brackets hold non-standard residues; d marks the D form. Peptide text beside a SMILES is read from it. * marks the point of attachment. 2Nal = N[C@@H](Cc1ccc2ccccc2c1)C(=O)O; Gly(cPent) = N[C@H](C(=O)O)C1CCCC1; X1 = O=C(Cn1c2ccccc2c2ccccc21)*; Aad = N[C@@H](CCCC(=O)O)C(=O)O; Cba = N[C@@H](CC1CCC1)C(=O)O; Aib = CC(C)(N)C(=O)O; Dha = C=C(N)C(=O)O

How the values were obtained:
MBP-16E6 [1] = biological target: T1, MBP-16E6 (Human papillomavirus 16, UniProt P03126, C104S/C118S/C147S/C87S); conditions: for improvement of binding relative to peptide 18: apparent Ki; for Ratio to wild-type: N-terminal modified peptides, KD of WT divided by KD
MBP-16E6 [2] = biological target: T1, MBP-16E6; conditions: for mono-crosslink yield at 1 h: 1 μM MBP-16E6, 4 μM Dha peptide; for mono-crosslink in 2 h: 2 h at 37° C., 10 eq. to protein 16E6
MBP-16E6 [3] = biological target: T1, MBP-16E6; assay: biochemical
[4] = biological target: SARS-CoV-2 3C-Like Protease; conditions: role: inhibitor; comparison drug; cited from earlier work
[5] = KD in nM, N-terminal modified peptides, competition mode, N = 2 or 3, SEM of curve fitting
[6] = competition KD, BLI competition, values in text

T1 sequence (P03126 whole entry C104S/C118S/C147S/C87S, looked up): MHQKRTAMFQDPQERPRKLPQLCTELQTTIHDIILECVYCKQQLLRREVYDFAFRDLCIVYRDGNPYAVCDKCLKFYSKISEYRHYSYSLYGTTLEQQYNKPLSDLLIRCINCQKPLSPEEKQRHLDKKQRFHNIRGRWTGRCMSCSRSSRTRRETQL

Structure (SMILES)	mono-crosslink in 2 h (MBP-16E6 [2])	Ki (MBP-16E6 [3]) [nM]	Ratio to wild-type (MBP-16E6 [1])	Kd (MBP-16E6 [3]; [5]) [nM]	also measured
C=C(NC(=O)[C@H](CC(C)C)NC(=O)[C@H](CC1CCC1)NC(=O)[C@H](CCC(=O)O)NC(=O)C(C)(C)NC(=O)[C@H](CC(C)C)NC(=O)[C@@H](NC(=O)[C@H](Cc1ccc2ccccc2c1)NC(=O)[C@H](CCCC(=O)O)NC(=O)[C@H](C)NC(=O)[C@H](CO)NC(=O)[C@H](CCC(N)=O)NC(=O)[C@@H]1CCCN1C(=O)[C@@H](NC(=O)Cn1c2ccccc2c2ccccc21)[C@@H](C)CC)C1CCCC1)C(=O)N[C@@H](CCC(=O)O)C(=O)N[C@@H](CCC(=O)O)C(=O)N[C@@H](CCCNC(=N)N)C(N)=O [Peptide 18-Car-IPQSA] (X1-IPQSA[Aad][2Nal][Gly(cPent)]L[Aib]E[Cba]L[Dha]EER-NH2)	quantitatively mono-crosslink	25 ± 5.5	–	–	improvement of binding relative to peptide 18 (MBP-16E6 [1]): 7 fold; mono-crosslink yield at 1 h (MBP-16E6 [2]): 85%
C=C(NC(=O)[C@H](CC(C)C)NC(=O)[C@H](CC1CCC1)NC(=O)[C@H](CCC(=O)O)NC(=O)C(C)(C)NC(=O)[C@H](CC(C)C)NC(=O)[C@@H](NC(=O)[C@H](Cc1ccc2ccccc2c1)NC(=O)[C@H](CCCC(=O)O)NC(=O)[C@H](C)NC(=O)[C@H](CO)NC(=O)[C@H](CCC(N)=O)NC(=O)[C@@H]1CCCN1C(=O)[C@@H](NC(=O)Cn1c2ccccc2c2ccccc21)[C@@H](C)CC)C1CCCC1)C(N)=O [18-Car-IPQSA-truncEER] (X1-IPQSA[Aad][2Nal][Gly(cPent)]L[Aib]E[Cba]L[Dha]-NH2)	quantitatively mono-crosslink	44 ± 11	–	–	mono-crosslink yield at 1 h (MBP-16E6 [2]): 76%
C=C(NC(=O)[C@H](C)NC(=O)[C@H](C)NC(=O)[C@H](CCC(=O)O)NC(=O)C(C)(C)NC(=O)[C@H](C)NC(=O)[C@@H](NC(=O)[C@H](Cc1ccc2ccccc2c1)NC(=O)[C@@H](N)CCCC(=O)O)C1CCCC1)C(=O)N[C@@H](CCC(=O)O)C(=O)N[C@@H](CCC(=O)O)C(=O)N[C@@H](CCCNC(=N)N)C(N)=O [Peptide 18-3L3A] (H-[Aad][2Nal][Gly(cPent)]A[Aib]EAA[Dha]EER-NH2)	–	–	–	–	binding to MBP-16E6 (MBP-16E6 [1]; BLI): no observable binding; crosslinking to MBP-16E6 (MBP-16E6 [2]; LC-MS): no observable crosslinking
C=C(NC(=O)[C@H](CC(C)C)NC(=O)[C@H](CC1CCC1)NC(=O)[C@H](CCC(=O)O)NC(=O)C(C)(C)NC(=O)[C@H](CC(C)C)NC(=O)[C@@H](NC(=O)[C@H](CCCCNC(=O)Cn1c2ccccc2c2ccccc21)NC(=O)[C@H](CCCC(=O)O)NC(C)=O)C1CCCC1)C(=O)N[C@@H](CCC(=O)O)C(=O)N[C@@H](CCC(=O)O)C(=O)N[C@@H](CCCNC(=N)N)C(N)=O [Peptide 18-Naf2Cab] (Ac-[Aad]K(X1)[Gly(cPent)]L[Aib]E[Cba]L[Dha]EER-NH2)	quantitatively mono-crosslink	51 ± 11	–	–	mono-crosslink yield at 1 h (MBP-16E6 [2]): 83%
C=C(NC(=O)[C@H](CC(C)C)NC(=O)[C@H](CC1CCC1)NC(=O)[C@H](CCC(=O)O)NC(=O)C(C)(C)NC(=O)[C@H](CC(C)C)NC(=O)[C@@H](NC(=O)[C@H](Cc1ccc2ccccc2c1)NC(=O)[C@H](CCCC(=O)O)NC(=O)Cn1c2ccccc2c2ccccc21)C1CCCC1)C(=O)N[C@@H](CCC(=O)O)C(=O)N[C@@H](CCC(=O)O)C(=O)N[C@@H](CCCNC(=N)N)C(N)=O [Peptide 18-Car] (X1-[Aad][2Nal][Gly(cPent)]L[Aib]E[Cba]L[Dha]EER-NH2)	quantitatively mono-crosslink	96 ± 33	–	–	improvement of binding relative to peptide 18 (MBP-16E6 [1]): 3 fold
CC[C@H](C)[C@H](NC(=O)[C@@H](N)CC1CCCCC1)C(=O)N1CCC[C@H]1C(=O)N[C@@H](CCC(=O)O)C(=O)N[C@@H](CO)C(=O)N[C@@H](CO)C(=O)N[C@@H](CCC(=O)O)C(=O)N[C@@H](CC(C)C)C(=O)N[C@H](C(=O)N[C@@H](CC(C)C)C(=O)N[C@@H](CCC(N)=O)C(=O)N[C@@H](CCC(=O)O)C(=O)N[C@@H](CC(C)C)C(=O)N[C@@H](CC(C)C)C(=O)NCC(=O)N[C@@H](CCC(=O)O)C(=O)N[C@@H](CCC(=O)O)C(=O)N[C@@H](CCCNC(=N)N)C(=O)N[C@@H](CCCNC(=N)N)C(N)=O)[C@@H](C)O [Peptide N22]	–	–	1.4	1660 ± 705	–
CC(C)(C)[C@H](NC(=O)C(F)(F)F)C(=O)N1C[C@H]2[C@@H]([C@H]1C(=O)N[C@H](C#N)C[C@@H]1CCNC1=O)C2(C)C [nirmatrelvir]	–	–	–	–	kinact/Ki [4]: 55000 M⁻¹ s⁻¹
CC[C@H](C)[C@H](NC(=O)c1c(O)cccc1O)C(=O)N1CCC[C@H]1C(=O)N[C@@H](CCC(=O)O)C(=O)N[C@@H](CO)C(=O)N[C@@H](CO)C(=O)N[C@@H](CCC(=O)O)C(=O)N[C@@H](CC(C)C)C(=O)N[C@H](C(=O)N[C@@H](CC(C)C)C(=O)N[C@@H](CCC(N)=O)C(=O)N[C@@H](CCC(=O)O)C(=O)N[C@@H](CC(C)C)C(=O)N[C@@H](CC(C)C)C(=O)NCC(=O)N[C@@H](CCC(=O)O)C(=O)N[C@@H](CCC(=O)O)C(=O)N[C@@H](CCCNC(=N)N)C(=O)N[C@@H](CCCNC(=N)N)C(N)=O)[C@@H](C)O [Peptide N15]	–	–	3.1	767 ± 295	–
CC[C@H](C)[C@H](NC(=O)[C@@H](N)Cc1ccc(-c2ccccc2)cc1)C(=O)N1CCC[C@H]1C(=O)N[C@@H](CCC(=O)O)C(=O)N[C@@H](CO)C(=O)N[C@@H](CO)C(=O)N[C@@H](CCC(=O)O)C(=O)N[C@@H](CC(C)C)C(=O)N[C@H](C(=O)N[C@@H](CC(C)C)C(=O)N[C@@H](CCC(N)=O)C(=O)N[C@@H](CCC(=O)O)C(=O)N[C@@H](CC(C)C)C(=O)N[C@@H](CC(C)C)C(=O)NCC(=O)N[C@@H](CCC(=O)O)C(=O)N[C@@H](CCC(=O)O)C(=O)N[C@@H](CCCNC(=N)N)C(=O)N[C@@H](CCCNC(=N)N)C(N)=O)[C@@H](C)O [Peptide N21]	–	–	1.7	1410 ± 757	decrease in binding by change of terminal group (MBP-16E6 [1]; relative to fluorene-modified N1 / parent modification): ~ 27 fold; Kd (MBP-16E6 [3]; [6]): 1410 nM
CC[C@H](C)[C@H](NC(=O)c1ccc2c3c(cccc13)CC2)C(=O)N1CCC[C@H]1C(=O)N[C@@H](CCC(=O)O)C(=O)N[C@@H](CO)C(=O)N[C@@H](CO)C(=O)N[C@@H](CCC(=O)O)C(=O)N[C@@H](CC(C)C)C(=O)N[C@H](C(=O)N[C@@H](CC(C)C)C(=O)N[C@@H](CCC(N)=O)C(=O)N[C@@H](CCC(=O)O)C(=O)N[C@@H](CC(C)C)C(=O)N[C@@H](CC(C)C)C(=O)NCC(=O)N[C@@H](CCC(=O)O)C(=O)N[C@@H](CCC(=O)O)C(=O)N[C@@H](CCCNC(=N)N)C(=O)N[C@@H](CCCNC(=N)N)C(N)=O)[C@@H](C)O [Peptide N19]	–	–	44.4	55 ± 12	Kd (MBP-16E6 [3]; [6]): < 70 nM
CC[C@H](C)[C@H](NC(=O)CCCc1ccc2ccc3cccc4ccc1c2c34)C(=O)N1CCC[C@H]1C(=O)N[C@@H](CCC(=O)O)C(=O)N[C@@H](CO)C(=O)N[C@@H](CO)C(=O)N[C@@H](CCC(=O)O)C(=O)N[C@@H](CC(C)C)C(=O)N[C@H](C(=O)N[C@@H](CC(C)C)C(=O)N[C@@H](CCC(N)=O)C(=O)N[C@@H](CCC(=O)O)C(=O)N[C@@H](CC(C)C)C(=O)N[C@@H](CC(C)C)C(=O)NCC(=O)N[C@@H](CCC(=O)O)C(=O)N[C@@H](CCC(=O)O)C(=O)N[C@@H](CCCNC(=N)N)C(=O)N[C@@H](CCCNC(=N)N)C(N)=O)[C@@H](C)O [Peptide N18]	–	–	23	106 ± 27	–
CC[C@H](C)[C@H](NC(=O)c1c(F)c(F)c(F)c(F)c1F)C(=O)N1CCC[C@H]1C(=O)N[C@@H](CCC(=O)O)C(=O)N[C@@H](CO)C(=O)N[C@@H](CO)C(=O)N[C@@H](CCC(=O)O)C(=O)N[C@@H](CC(C)C)C(=O)N[C@H](C(=O)N[C@@H](CC(C)C)C(=O)N[C@@H](CCC(N)=O)C(=O)N[C@@H](CCC(=O)O)C(=O)N[C@@H](CC(C)C)C(=O)N[C@@H](CC(C)C)C(=O)NCC(=O)N[C@@H](CCC(=O)O)C(=O)N[C@@H](CCC(=O)O)C(=O)N[C@@H](CCCNC(=N)N)C(=O)N[C@@H](CCCNC(=N)N)C(N)=O)[C@@H](C)O [Peptide N16]	–	–	10.7	228 ± 74	–
